Results published in US7119123B2, “Antimicrobially active 4-methyl-4-aryl-2-pentanols, their preparation and use” (Symrise GmbH & Co. KG, priority 2004, dated 2006).

Columns and labels:
[1] = system: glycolysis; conditions: known from J. Dental Res. 40,384 (1961); cariostatic; cited from earlier work
[2] = system: Malassezia furfur; assay: agar dilution method, MIC; format: cell-based; conditions: DSM6171; Malassezia furfur DSM 6171; Mueller-Hinton agar + 3% Tween 80, aerobic, 72 h at 30° C.; read-out: MIC (minimum inhibitory concentration)
Experimental: (§1) Petri dishes 5.5 cm in diameter were charged with 8.7 ml freshly prepared Mueller-Hinton agar (Merck, Ref. 1.05437 or Wilkins-Chalgren agar boillon (sic), Oxoid, Ref. CM 643, supplemented with 10 g agar-agar/liter) kept liquid at 50° C., to which the various concentrations of the diluted samples were added in 3.3% (V/V)=0.3 ml. Mueller-Hinton agar that contained 3% Tween80 (Merck, Ref. 8.22 187) was used for the test germ Malassezia furfur.
(§2) 2.6 ml of the 3.3% samples were diluted with ethanol (96%; Merck, Ref. 1.00971). The further test concentrations of the particular dilution series, which were prepared in the form of geometric series, were prepared by progressive 2:1 dilution with ethanol (96%).
(§3) The concentrations indicated below relate to the pure substance and have been converted to ppm. Two agar plates were poured per test concentration and nutrient medium.
(§4) After solidification and drying (approximately 1 h at 37° C.), the test plates were inoculated in point form with, in each case, 1 μl of the test germ suspensions listed in the examples below. To check purity and identity, the bacteria (Brevibacterium epidermidis, Corynebakterium (sic) xerosis, Staphylococcus aureus; Staphylococcus epidermidis) which grow aerobically, were [lacuna] on Columbia blood agar (BioMérieux, Ref. 43049). The mould Aspergillus niger, the yeast Candida albicans and the skin fungus Trichophyton mentagrophytes were cultivated on Sabouraud agar (BioMérieux, Ref. 43555). Malassezia furfur was cultured on Sabourad-HLT agar with inhibitors (addition of Tween80: 1%; lecithin: 0.3%; histidine: 0.1%; Merck, Ref. 1.18368). Propionibacterium acnes was cultivated on Schaedler agar (BioMérieux, Ref. 43273). Further data on the test germs can be taken from Table 1.
(§5) For preparation of the other test germ suspensions, the test strains were cultured on the abovementioned solid nutrient medium, harvested using sterile swabs and taken up or diluted in such an amount of Mueller-Hinton broth that the turbidity of the suspensions corresponded to McFarland standard 0.5.
(§6) All test germ suspensions with the exception of Propionibacterium acnes were diluted again 1:10 with sterile broth and the germ count thereof was determined by the surface method using a Spiralometer (results: see Table 1).
(§7) The MIC (minimum inhibitory concentration) was regarded as the lowest concentration of active compound at which macroscopically there is no growth. Minimal, barely visible growth or few small individual colonies were evaluated as inhibition.
(§8) The MIC values of various (R/S)-4-methyl-4-aryl-2-pentanols were determined in accordance with the general test conditions described under 2.1. (c.f. Table 3; MIC values for (R/S[lacuna]-4-methyl-4-phenyl-2-pentanol, for (R/S)-4-methyl-4-p-tolyl-2-pentanol, (R/S)-4-methyl-4-p-cumenyl-2-pentanol and (R/S)-4-methyl-4-(4-n-butylphenyl)-2-pentanol).

[3] = system: Aspergillus niger; assay: agar dilution method, MIC; format: cell-based; conditions: for MIC: ATCC16404, Aspergillus niger ATCC 16404, Mueller-Hinton agar, aerobic, 48 h at 30° C., read-out: MIC (minimum inhibitory concentration); for effectiveness against moulds (in words): comparison among substances 2-5
Experimental: as §1, §2, §3, §4, §5, §6, §7, §8

[4] = system: Candida albicans; assay: agar dilution method, MIC; format: cell-based; conditions: for MIC: ATCC10231, Candida albicans ATCC 10231, Mueller-Hinton agar, aerobic, 48 h at 30° C., read-out: MIC (minimum inhibitory concentration); for effectiveness against yeasts such as Candida albicans (in words): comparison among substances 2-5
Experimental: as §1, §2, §3, §4, §5, §6, §7, §8

[5] = system: Trichophyton mentagrophytes; assay: agar dilution method, MIC; format: cell-based; conditions: CBS26379; Trichophyton mentagrophytes CBS 26379; Mueller-Hinton agar, aerobic, 72 h at 30° C.; read-out: MIC (minimum inhibitory concentration)
Experimental: as §1, §2, §3, §4, §5, §6, §7, §8

[6] = system: Propionibacterium acnes; assay: agar dilution method, MIC; format: cell-based; conditions: for MIC: Cutibacterium acnes, ATCC11829, Propionibacterium acnes ATCC 11829, Wilkins-Chalgren agar, anaerobic, 72 h at 36° C., read-out: MIC (minimum inhibitory concentration); for activity against Propionibacterium acnes (in words): text comment on Table 3
Experimental: as §1, §2, §3, §4, §5, §7, §8

[7] = system: Pseudomonas aeruginosa; assay: agar dilution method, MIC; format: cell-based; conditions: read-out: MIC (minimum inhibitory concentration)
Experimental: as §1, §2, §3, §7, §8

[8] = system: Escherichia coli; assay: agar dilution method, MIC; format: cell-based; conditions: read-out: MIC (minimum inhibitory concentration)
Experimental: as §1, §2, §3, §7, §8

[9] = system: Corynebacterium xerosis; assay: agar dilution method, MIC; format: cell-based; conditions: ATCC7711; Corynebacterium xerosis ATCC 7711; Mueller-Hinton agar, aerobic, 18 h at 36° C.; read-out: MIC (minimum inhibitory concentration)
Experimental: as §1, §2, §3, §4
(§9) The preparation of the test germ suspensions of the bacterial germs that grow aerobically was carried out by incubation of Mueller-Hinton broth (Merck, Ref. 1.10293) which had been inoculated with a few individual colonies of the relevant test germs, at 36° C. After a distinct turbidity had been obtained, sterile nutrient broth was added to the suspensions in such an amount that the turbidity thereof corresponded to McFarland Standard 0.5 (approx. 1.5×10^8 CFU/ml).
as §6, §7, §8

[10] = system: Staphylococcus epidermidis; assay: agar dilution method, MIC; format: cell-based; conditions: ATCC12228; Staphylococcus epidermidis ATCC 12228; Mueller-Hinton agar, aerobic, 18 h at 36° C.; read-out: MIC (minimum inhibitory concentration)
Experimental: as §1, §2, §3, §4, §9, §6, §7, §8

[11] = system: Brevibacterium epidermidis; assay: agar dilution method, MIC; format: cell-based; conditions: ATCC35514; Brevibacterium epidermidis ATCC 35514; Mueller-Hinton agar, aerobic, 18 h at 36° C.; read-out: MIC (minimum inhibitory concentration)
Experimental: as §1, §2, §3, §4, §9, §6, §7, §8

| Structure (SMILES) | glycolysis-inhibiting action (in words) [1] | MIC [2] [µg/mL] | MIC [3] [µg/mL] | effectiveness against moulds (in words) [3] | MIC [4] [µg/mL] | effectiveness against yeasts such as Candida albicans (in words) [4] | MIC [5] [µg/mL] | MIC [6] [µg/mL] | activity against Propionibacterium acnes (in words) [6] | MIC [7] [µg/mL] | MIC [8] [µg/mL] | MIC [9] [µg/mL] | MIC [10] [µg/mL] | MIC [11] [µg/mL] |
| --- | --- | --- | --- | --- | --- | --- | --- | --- | --- | --- | --- | --- | --- | --- |
| CC(O)CC(C)(C)c1ccccc1 (racemic) [Formula 2, (R,S)-4-methyl-4-phenyl-2-pentanol] | a certain glycolysis-inhibiting action | 69 | 550 | most effective | 1100 | most effective | 550 | 1100 | an activity can also be observed | > 1100 | > 1100 | 1100 | 1100 | 1100 |
| CCCCc1ccc(C(C)(C)CC(C)O)cc1 (racemic) [Formula 5, (R,S)-4-methyl-4-(4-n-butylphenyl)-2-pentanol] |  | 550 | > 1100 |  | > 1100 |  | 69 | > 1100 | an activity can also be observed | > 1100 | > 1100 | 69 | 1100 | 550 |
| CC(O)CC(C)(C)c1ccc(C(C)C)cc1 (racemic) [Formula 4, (R,S)-4-methyl-4-p-cumenyl-2-pentanol] |  | 550 | > 1100 |  | > 1100 |  | 69 | 138 |  | > 1100 | > 1100 | 69 | 138 | 138 |
| Cc1ccc(C(C)(C)CC(C)O)cc1 (racemic) [Formula 3, (R,S)-4-methyl-4-p-tolyl-2-pentanol] |  | 69 | 550 | most effective | 1100 | most effective | 138 | 550 | an activity can also be observed | > 1100 | > 1100 | 275 | 550 | 550 |
